Data on six compounds can be found in ChEMBL document CHEMBL1127151, “Derivatives of cyclosporin at position 2 as probes for cyclophilin” (1993).

Experiment [1] can be described thus: In vitro binding affinity of compound was measured to Cyclophilin under competitive ELISA system, activity relative to compound 1. In general terms: ELISA stands for enzyme-linked immunosorbent assay.
The species named for experiment [2] is Mus musculus. In words: The immunosuppressive activity of compound was measured with the help of a mixed lymphocyte reaction in mouse (MLR_M), activity relative to compound 1. It counts as functional.
Experiment [3] relates to T-cell. In words: The immunosuppressive activity of compound was measured with the help of a reporter gene assay (IL2_RGA), activity relative to compound 1. It counts as functional, Homo sapiens.

On to `C/C=C/C[C@@H](C)[C@@H](O)[C@H]1C(=O)N[C@@H](CC(Cl)Cl)C(=O)N(C)CC(=O)N(C)[C@@H](CC(C)C)C(=O)N[C@@H](C(C)C)C(=O)N(C)[C@@H](CC(C)C)C(=O)N[C@@H](C)C(=O)N[C@H](C)C(=O)N(C)[C@@H](CC(C)C)C(=O)N(C)[C@@H](CC(C)C)C(=O)N(C)C(C(C)C)C(=O)N1C` (single isomer, unassigned), for which the figures for the Ratio in experiment [1], in experiment [2] and in experiment [3] were 250, 135 and 200, respectively.

In the case of `C/C=C/C[C@@H](C)[C@@H](O)[C@H]1C(=O)N[C@@H]([C@H](O)CC)C(=O)N(C)CC(=O)N(C)[C@@H](CC(C)C)C(=O)N[C@@H](C(C)C)C(=O)N(C)[C@@H](CC(C)C)C(=O)N[C@@H](C)C(=O)N[C@H](C)C(=O)N(C)[C@@H](CC(C)C)C(=O)N(C)[C@@H](CC(C)C)C(=O)N(C)C(C(C)C)C(=O)N1C` (single isomer, unassigned), the Ratio in experiment [1] stood at 5.2; in experiment [2] it was 2.3; in experiment [3], 3.

Consider `C/C=C/C[C@@H](C)[C@@H](O)[C@H]1C(=O)N[C@@H](CC2CC2)C(=O)N(C)CC(=O)N(C)[C@@H](CC(C)C)C(=O)N[C@@H](C(C)C)C(=O)N(C)[C@@H](CC(C)C)C(=O)N[C@@H](C)C(=O)N[C@H](C)C(=O)N(C)[C@@H](CC(C)C)C(=O)N(C)[C@@H](CC(C)C)C(=O)N(C)C(C(C)C)C(=O)N1C` (single isomer, unassigned), for which the Ratio in experiment [1] was determined as 250; in experiment [2], 120; in experiment [3] it was 225.

In the case of `C/C=C/C[C@@H](C)[C@@H](O)[C@H]1C(=O)N[C@@H]([C@@H](C)O)C(=O)N(C)CC(=O)N(C)[C@@H](CC(C)C)C(=O)N[C@@H](C(C)C)C(=O)N(C)[C@@H](CC(C)C)C(=O)N[C@@H](C)C(=O)N[C@H](C)C(=O)N(C)[C@@H](CC(C)C)C(=O)N(C)[C@@H](CC(C)C)C(=O)N(C)C(C(C)C)C(=O)N1C` (single isomer, unassigned), the results for the Ratio in experiment [1], in experiment [2] and in experiment [3] were 1.4, 1.7 and 1, respectively.

Turning to `C/C=C/C[C@@H](C)[C@@H](O)[C@H]1C(=O)N[C@@H](C[C@@H](C)O)C(=O)N(C)CC(=O)N(C)[C@@H](CC(C)C)C(=O)N[C@@H](C(C)C)C(=O)N(C)[C@@H](CC(C)C)C(=O)N[C@@H](C)C(=O)N[C@H](C)C(=O)N(C)[C@@H](CC(C)C)C(=O)N(C)[C@@H](CC(C)C)C(=O)N(C)C(C(C)C)C(=O)N1C` (single isomer, unassigned), the Ratio in experiment [1] amounted to 207.

Consider `C/C=C/C[C@@H](C)[C@@H](O)[C@H]1C(=O)N[C@@H](CCC)C(=O)N(C)CC(=O)N(C)[C@@H](CC(C)C)C(=O)N[C@@H](C(C)C)C(=O)N(C)[C@@H](CC(C)C)C(=O)N[C@@H](C)C(=O)N[C@H](C)C(=O)N(C)[C@@H](CC(C)C)C(=O)N(C)[C@@H](CC(C)C)C(=O)N(C)C(C(C)C)C(=O)N1C` (single isomer, unassigned) [GECLOSPORIN], for which the Ratio amounted to 4 in experiment [1], 1.6 in experiment [2] and 2.6 in experiment [3].
